Source: patent US10538487B2, “Sulfonylureas and related compounds and use of same” (priority 2015, dated 2020)
Read-outs that look alike come from different tables or passages of the source.

Experiment: Single dose pharmacokinetic study in mice (iv 4 mg/Kg, po 20 mg/Kg), plasma concentration post-dosing
Format: in vivo, mouse
Settings: male, C57BL/6, mouse, plasma, mouse; for concentration at 5 min: 5 min post dosing; for concentration at 0.25 h: 0.250 h post dosing; for concentration at 0.5 h: 0.500 h post dosing; for concentration at 1 h: 1.00 h post dosing; for concentration at 2 h: 2.00 h post dosing; for concentration at 4 h: 4.00 h post dosing; for concentration at 8 h: 8.00 h post dosing; for concentration at 24 h: 24.0 h post dosing
Procedure: This is advantageous leading to comparatively lower doses or less frequent administration. The procedure followed was: Male C57BL/6 mice were used at 7-9 weeks age with 3 animals per group. Mice were dosed with test compound using single intravenous bolus or oral gavage. Blood samples were taken via submandibular or saphenous vein for analysis of plasma concentrations of compound by LC-MS/MS at the following timepoints: IV (3 mice): 0.083, 0.25, 0.5, 1, 2, 4, 8 and 24 hours post dosing, PO (3 mice): 0.25, 0.5, 1, 2, 4, 8 and 24 hours post dosing. LC-MS/MS method for the quantitative determination of test compound in corresponding biological matrix was developed. […] The results are shown graphically in FIGS. 1A to 1C (MCC950) and FIGS. 2A to 2C (MCC7840).

## CC(C)n1ccc(S(=O)(=O)NC(=O)Nc2c3c(cc4c2CCC4)CCC3)n1 [MCC_007840_002]
iv, 4 mg/kg, IV 4 mg/Kg, individual mice M1-M3, read-out: Plasma concentration, IV Time 0.0833 h
  concentration at 5 min: 47800 ng/mL
iv, 4 mg/kg, IV 4 mg/Kg, mean of 3 mice, read-out: Plasma concentration, IV Time 0.0833 h, Mean IV
  concentration at 5 min: 42800 ng/mL
iv, 4 mg/kg, IV 4 mg/Kg, individual mice M1-M3, read-out: Plasma concentration, IV Time 0.250 h
  concentration at 0.25 h: 28100 ng/mL
iv, 4 mg/kg, IV 4 mg/Kg, mean of 3 mice, read-out: Plasma concentration, IV Time 0.250 h, Mean IV
  concentration at 0.25 h: 28900 ng/mL
iv, 4 mg/kg, IV 4 mg/Kg, individual mice M1-M3, read-out: Plasma concentration, IV Time 0.500 h
  concentration at 0.5 h: 25200 ng/mL
iv, 4 mg/kg, IV 4 mg/Kg, mean of 3 mice, read-out: Plasma concentration, IV Time 0.500 h, Mean IV
  concentration at 0.5 h: 25000 ng/mL
iv, 4 mg/kg, IV 4 mg/Kg, individual mice M1-M3, read-out: Plasma concentration, IV Time 1.00 h
  concentration at 1 h: 19900 ng/mL
iv, 4 mg/kg, IV 4 mg/Kg, mean of 3 mice, read-out: Plasma concentration, IV Time 1.00 h, Mean IV
  concentration at 1 h: 18700 ng/mL
iv, 4 mg/kg, IV 4 mg/Kg, individual mice M1-M3, read-out: Plasma concentration, IV Time 2.00 h
  concentration at 2 h: 13300 ng/mL
iv, 4 mg/kg, IV 4 mg/Kg, mean of 3 mice, read-out: Plasma concentration, IV Time 2.00 h, Mean IV
  concentration at 2 h: 16000 ng/mL
iv, 4 mg/kg, IV 4 mg/Kg, individual mice M1-M3, read-out: Plasma concentration, IV Time 4.00 h
  concentration at 4 h: 6520 ng/mL
iv, 4 mg/kg, IV 4 mg/Kg, mean of 3 mice, read-out: Plasma concentration, IV Time 4.00 h, Mean IV
  concentration at 4 h: 7890 ng/mL
iv, 4 mg/kg, IV 4 mg/Kg, individual mice M1-M3, read-out: Plasma concentration, IV Time 8.00 h
  concentration at 8 h: 3490 ng/mL
iv, 4 mg/kg, IV 4 mg/Kg, mean of 3 mice, read-out: Plasma concentration, IV Time 8.00 h, Mean IV
  concentration at 8 h: 3760 ng/mL
iv, 4 mg/kg, IV 4 mg/Kg, individual mice M1-M3, read-out: Plasma concentration, IV Time 24.0 h
  concentration at 24 h: 149 ng/mL
iv, 4 mg/kg, IV 4 mg/Kg, mean of 3 mice, read-out: Plasma concentration, IV Time 24.0 h, Mean IV
  concentration at 24 h: 134 ng/mL
iv, 4 mg/kg, IV 4 mg/Kg, individual mice M1-M3, read-out: AUC0-inf
  AUC0-inf: 101 µg·h/mL
iv, 4 mg/kg, IV 4 mg/Kg, individual mice M1-M3, read-out: AUC0-last
  AUC(0-t): 100 µg·h/mL
iv, 4 mg/kg, IV 4 mg/Kg, individual mice M1-M3, read-out: C0
  C0: 62300 ng/mL
iv, 4 mg/kg, IV 4 mg/Kg, individual mice M1-M3, read-out: Cl
  clearance: 0.659 mL/min/kg
iv, 4 mg/kg, IV 4 mg/Kg, individual mice M1-M3, read-out: MRT0-inf
  MRT inf: 4.3 h
iv, 4 mg/kg, IV 4 mg/Kg, individual mice M1-M3, read-out: MRT0-last
  MRT last: 4.11 h
iv, 4 mg/kg, IV 4 mg/Kg, individual mice M1-M3, read-out: T1/2 (converted)
  half-life: 3.62 h
iv, 4 mg/kg, IV 4 mg/Kg, individual mice M1-M3, read-out: Vdss
  Vd: 0.17 L/kg
iv, 4 mg/kg, IV 4 mg/Kg, mean of 3 mice, read-out: AUC0-inf, Mean IV
  AUC0-inf: 108 µg·h/mL
iv, 4 mg/kg, IV 4 mg/Kg, mean of 3 mice, read-out: AUC0-last, Mean IV
  AUC(0-t): 107 µg·h/mL
iv, 4 mg/kg, IV 4 mg/Kg, mean of 3 mice, read-out: Cl, Mean IV
  clearance: 0.621 mL/min/kg
iv, 4 mg/kg, IV 4 mg/Kg, mean of 3 mice, read-out: MRT0-inf, Mean IV
  MRT inf: 4.29 h
iv, 4 mg/kg, IV 4 mg/Kg, mean of 3 mice, read-out: MRT0-last, Mean IV
  MRT last: 4.13 h
iv, 4 mg/kg, IV 4 mg/Kg, mean of 3 mice, read-out: T1/2, Mean IV (converted)
  half-life: 3.39 h
iv, 4 mg/kg, IV 4 mg/Kg, mean of 3 mice, read-out: Vdss, Mean IV
  Vd: 0.16 L/kg
po, 20 mg/kg, PO 20 mg/Kg, mean of 3 mice, read-out: Plasma concentration, PO Time 0.250 h, Mean PO
  concentration at 0.25 h: 60500 ng/mL
po, 20 mg/kg, PO 20 mg/Kg, mean of 3 mice, read-out: Plasma concentration, PO Time 0.500 h, Mean PO
  concentration at 0.5 h: 50300 ng/mL
po, 20 mg/kg, PO 20 mg/Kg, mean of 3 mice, read-out: Plasma concentration, PO Time 1.00 h, Mean PO
  concentration at 1 h: 42300 ng/mL
po, 20 mg/kg, PO 20 mg/Kg, mean of 3 mice, read-out: Plasma concentration, PO Time 2.00 h, Mean PO
  concentration at 2 h: 42600 ng/mL
po, 20 mg/kg, PO 20 mg/Kg, mean of 3 mice, read-out: Plasma concentration, PO Time 4.00 h, Mean PO
  concentration at 4 h: 26600 ng/mL
po, 20 mg/kg, PO 20 mg/Kg, mean of 3 mice, read-out: Plasma concentration, PO Time 8.00 h, Mean PO
  concentration at 8 h: 18900 ng/mL
po, 20 mg/kg, PO 20 mg/Kg, mean of 3 mice, read-out: Plasma concentration, PO Time 24.0 h, Mean PO
  concentration at 24 h: 1470 ng/mL
po, 20 mg/kg, PO 20 mg/Kg, individual mice M4-M6, read-out: AUC0-inf
  AUC0-inf: 368 µg·h/mL
po, 20 mg/kg, PO 20 mg/Kg, individual mice M4-M6, read-out: MRT0-last
  MRT last: 4.8 h
po, 20 mg/kg, PO 20 mg/Kg, individual mice M4-M6, read-out: Tmax
  Tmax: 0.25 h
po, 20 mg/kg, PO 20 mg/Kg, mean of 3 mice, read-out: AUC0-inf, Mean PO
  AUC0-inf: 362 µg·h/mL
po, 20 mg/kg, PO 20 mg/Kg, mean of 3 mice, read-out: AUC0-last, Mean PO
  AUC(0-t): 350 µg·h/mL
po, 20 mg/kg, PO 20 mg/Kg, mean of 3 mice, read-out: Cmax, Mean PO
  Cmax: 60500 ng/mL
po, 20 mg/kg, PO 20 mg/Kg, mean of 3 mice, read-out: MRT0-inf, Mean PO
  MRT inf: 7.52 h
